Patent US7875452B2, “Non-desensitizing mutant of the transient receptor potential TRPM5 ion channel” (Redpoint Bio Corporation, priority 2007, dated 2011)

What was measured:
Type in all cases: cell-based
[1] = target: T1, non-desensitizing (His)6-hTRPM5 ion channel (Homo sapiens, UniProt Q9NZQ8); test: FMP dye membrane potential assay in cells transfected with non-desensitizing (His)6-hTRPM5; settings: 10 μM ATP, HEK 293 cells transiently transfected with (His)6-hTRPM5, FIG. 3
T1 construct: expressed in transfected cells; host or cells: HEK 293 cells (ATCC), transient transfection with pcDNA-DEST-26-(His)6-hTRPM5
T1 sequence (Q9NZQ8 with tags, fused parts or gaps): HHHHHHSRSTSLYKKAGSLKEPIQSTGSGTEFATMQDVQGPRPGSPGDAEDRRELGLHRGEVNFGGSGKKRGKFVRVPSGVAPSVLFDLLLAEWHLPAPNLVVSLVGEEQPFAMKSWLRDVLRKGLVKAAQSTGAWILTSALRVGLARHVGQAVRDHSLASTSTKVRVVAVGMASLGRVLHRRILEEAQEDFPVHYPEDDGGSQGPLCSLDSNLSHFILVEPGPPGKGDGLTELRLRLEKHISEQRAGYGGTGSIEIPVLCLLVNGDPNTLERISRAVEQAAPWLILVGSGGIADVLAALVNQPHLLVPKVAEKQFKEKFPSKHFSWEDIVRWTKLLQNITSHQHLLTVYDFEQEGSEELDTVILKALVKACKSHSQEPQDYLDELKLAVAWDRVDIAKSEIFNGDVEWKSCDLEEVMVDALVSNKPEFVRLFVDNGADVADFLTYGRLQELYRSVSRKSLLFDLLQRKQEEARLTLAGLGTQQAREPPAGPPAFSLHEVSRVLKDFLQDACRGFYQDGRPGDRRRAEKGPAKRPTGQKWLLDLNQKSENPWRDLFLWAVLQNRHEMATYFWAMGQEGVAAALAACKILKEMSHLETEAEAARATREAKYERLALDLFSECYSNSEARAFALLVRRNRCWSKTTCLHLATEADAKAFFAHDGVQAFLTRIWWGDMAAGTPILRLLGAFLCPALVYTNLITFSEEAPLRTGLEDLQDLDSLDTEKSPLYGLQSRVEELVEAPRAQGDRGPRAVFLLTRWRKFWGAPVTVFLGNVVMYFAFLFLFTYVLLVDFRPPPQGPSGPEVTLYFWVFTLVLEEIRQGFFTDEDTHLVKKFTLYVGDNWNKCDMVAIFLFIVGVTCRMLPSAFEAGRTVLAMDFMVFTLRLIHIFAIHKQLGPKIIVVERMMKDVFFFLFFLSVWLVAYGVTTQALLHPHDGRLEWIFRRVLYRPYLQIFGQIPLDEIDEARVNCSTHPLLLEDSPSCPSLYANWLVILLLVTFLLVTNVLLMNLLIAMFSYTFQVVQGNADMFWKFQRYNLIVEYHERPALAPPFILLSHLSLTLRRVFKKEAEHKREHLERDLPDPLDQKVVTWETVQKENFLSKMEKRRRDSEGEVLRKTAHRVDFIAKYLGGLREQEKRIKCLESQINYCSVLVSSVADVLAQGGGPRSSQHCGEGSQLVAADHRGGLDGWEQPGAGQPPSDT
Experimental: (§1) 5.0×10^6 HEK 293 cells (ATCC) were plated in a 10 cm culture dish at 37° C. in a CO2 incubator in Dulbecco's Modified Eagle's Medium (DMEM) supplemented with 10% Fetal Bovine Serum (FBS) and Penicillin-Streptomycin Solution. The following day, medium in the culture dish was exchanged with 15 mL of DMEM/10% FBS over a period of 3 hours. Prior to cell transfection, 24 μg of pcDNA-DEST-26-(His)6-hTRPM5 was incubated in a 5 mL polypropylene tube for 5 minutes at room temperature in 1.5 mL of OPTI-MEM media (Invitrogen). In a separate 5 mL polypropylene tube, 42 μL of Lipofectamine™ 2000 (Invitrogen) was incubated for 5 minutes at room temperature in 1.5 mL of OPTI-MEM media. […] Plates were then assayed on a FLIPR Tetra reader as described.
(§2) 100 μl of the Blue or Red FMP dye (Molecular Devices) was added to each well of plates seeded with HEK cells transiently transfected with pDEST-26™-(His)6-hTRPM 5. […] The plate was read in a FLEXStation™ microplate reader (Molecular Devices) with an excitation of 530 nm and an emission of 565 nm. The fluorescence was monitored for 3 minutes upon exposure of the cells to a calcium activating agent (carbachol, thrombin peptide or ATP). […]
Cells transfected with non-desensitizing (His)6-hTRPM5 DNA were loaded with FMP dye and then treated with 10 μM ATP and monitored for an increase in cellular fluorescence in the FLEXstation™. […]

wildtype hTRPM5 = target: T2, wildtype hTRPM5 (Homo sapiens, UniProt Q9NZQ8); test: FMP dye membrane potential assay in cells transfected with wildtype hTRPM5; settings: 10 μM ATP, cells transfected with wildtype hTRPM5, FIG. 3
T2 construct: the full length hTRPM5 was amplified by PCR using GC Melt; expressed in transfected cells; host or cells: HEK 293 cells
T2 sequence (Q9NZQ8 1-1165): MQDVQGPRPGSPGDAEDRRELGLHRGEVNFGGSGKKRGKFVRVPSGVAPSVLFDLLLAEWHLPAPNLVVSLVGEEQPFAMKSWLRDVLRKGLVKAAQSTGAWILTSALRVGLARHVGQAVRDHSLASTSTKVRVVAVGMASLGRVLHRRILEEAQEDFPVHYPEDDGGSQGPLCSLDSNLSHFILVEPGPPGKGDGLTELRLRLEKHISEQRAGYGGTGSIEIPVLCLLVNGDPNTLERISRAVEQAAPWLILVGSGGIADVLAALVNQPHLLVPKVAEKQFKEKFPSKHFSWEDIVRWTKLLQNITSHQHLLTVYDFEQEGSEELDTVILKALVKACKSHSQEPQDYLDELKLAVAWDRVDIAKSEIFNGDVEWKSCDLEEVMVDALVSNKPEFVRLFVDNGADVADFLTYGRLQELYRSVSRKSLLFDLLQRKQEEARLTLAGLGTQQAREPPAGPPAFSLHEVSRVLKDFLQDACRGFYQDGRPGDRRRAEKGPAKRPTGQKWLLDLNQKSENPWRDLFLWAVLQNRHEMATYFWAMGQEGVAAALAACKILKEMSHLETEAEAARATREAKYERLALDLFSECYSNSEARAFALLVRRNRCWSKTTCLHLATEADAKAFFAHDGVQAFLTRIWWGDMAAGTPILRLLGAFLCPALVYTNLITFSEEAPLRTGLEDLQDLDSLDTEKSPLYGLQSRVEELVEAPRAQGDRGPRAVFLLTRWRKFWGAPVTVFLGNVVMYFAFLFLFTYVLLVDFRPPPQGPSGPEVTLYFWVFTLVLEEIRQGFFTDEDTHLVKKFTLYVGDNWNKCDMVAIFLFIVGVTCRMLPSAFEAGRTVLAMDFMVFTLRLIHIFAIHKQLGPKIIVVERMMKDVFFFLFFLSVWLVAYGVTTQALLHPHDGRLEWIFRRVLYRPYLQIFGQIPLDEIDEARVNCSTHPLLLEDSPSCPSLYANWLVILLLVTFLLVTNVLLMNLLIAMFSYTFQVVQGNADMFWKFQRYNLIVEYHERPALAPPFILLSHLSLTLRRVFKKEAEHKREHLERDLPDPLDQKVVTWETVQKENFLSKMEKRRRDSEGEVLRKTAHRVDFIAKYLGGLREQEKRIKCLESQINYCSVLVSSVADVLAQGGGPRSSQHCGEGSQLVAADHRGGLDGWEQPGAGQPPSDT
Experimental: as §1, with “media. After the 5 minute incubation period, the pcDNA-DEST-26-(His)6-hTRPM5 and Lipofectamine™ 2000 solutions were mixed together and incubated for an additional 20 minutes at room temperature.” for “media.”
as §2

[2] = system: cells transfected with PSV3 Neo; test: FMP dye membrane potential assay in sham cells transfected with PSV3 Neo empty vector; settings: 10 μM ATP, sham control, FIG. 3
Experimental: 100 μl of the Blue or Red FMP dye (Molecular Devices) was added to each well of plates seeded with HEK cells transiently transfected with pDEST-26™-(His)6-hTRPM 5. The plate was then incubated in a 37° C. /5% CO2 incubator for 1 hour. The plate was read in a FLEXStation™ microplate reader (Molecular Devices) with an excitation of 530 nm and an emission of 565 nm. The fluorescence was monitored for 3 minutes upon exposure of the cells to a calcium activating agent (carbachol, thrombin peptide or ATP).
Cells transfected with either wildtype hTRPM5 DNA, non-desensitizing (His)6-hTRPM5 DNA or PSV3 Neo were loaded with FMP dye and then treated with 10 μM ATP and monitored for an increase in cellular fluorescence in the FLEXstation™.

Nc1ncnc2c1ncn2[C@@H]1O[C@H](COP(=O)(O)OP(=O)(O)OP(=O)(O)O)[C@@H](O)[C@H]1O [ATP, adenosine triphosphate]
time for which fluorescence is observed at significant levels after activation [1]: more than 3 minutes | duration of increase in fluorescence (initial activation) before rapid inactivation (wildtype hTRPM5): about 30 seconds | membrane potential response (cellular fluorescence) to application [2]: no significant response
